Laboratory results reported in US9725467B2, “Fluorinated benzenesulfonamides as inhibitors of carbonic anhydrase” (VILNIUS UNIVERSITY, priority 2012, dated 2017).

Legend:
CA VII [1] = target: T1, CA VII (Homo sapiens, UniProt P43166); experiment: Fluorescent thermal shift assay (TSA), CA VII; type: binding; conditions: 37° C., pH 7.0, read-out: Dissociation constants Kd to CA VII (converted)
CA II [2] = target: T2, CA II (Homo sapiens, UniProt P00918); experiment: Fluorescent thermal shift assay (TSA), CA II; type: binding; conditions: 37° C., pH 7.0, read-out: Dissociation constants Kd to CA II (converted)
CA I [3] = target: T3, CA I (Homo sapiens, UniProt P00915); experiment: Fluorescent thermal shift assay (TSA), CA I; type: binding; conditions: 37° C., pH 7.0, read-out: Dissociation constants Kd to CA I (converted)
CA XIII [4] = target: T4, CA XIII (Homo sapiens, UniProt Q8N1Q1); experiment: Fluorescent thermal shift assay (TSA), CA XIII; type: binding; conditions: 37° C., pH 7.0, read-out: Dissociation constants Kd to CA XIII
CA XII [5] = target: T5, CA XII (Homo sapiens, UniProt O43570); experiment: Fluorescent thermal shift assay (TSA), CA XII; type: binding; conditions: 37° C., pH 7.0, read-out: Dissociation constants Kd to CA XII (converted)
CA XII [6] = target: T5, CA XII; experiment: Isothermal titration calorimetry (ITC), CA XII; type: binding; conditions: 37° C., pH 7.0, read-out: Dissociation constants Kd to CA XII
CA XIII [7] = target: T4, CA XIII; experiment: biochemical
CA II [8] = target: T2, CA II; experiment: biochemical
CA VII [9] = target: T1, CA VII; experiment: Isothermal titration calorimetry (ITC), CA VII; type: binding; conditions: 37° C., pH 7.0, read-out: Dissociation constants Kd to CA VII
CA I [10] = target: T3, CA I; experiment: Isothermal titration calorimetry (ITC), CA I; type: binding; conditions: 37° C., pH 7.0, read-out: Dissociation constants Kd to CA I
CA II [11] = target: T2, CA II; experiment: CO2 hydration assay (stopped-flow); type: biochemical

T5 sequence (O43570 30-291 limits assumed): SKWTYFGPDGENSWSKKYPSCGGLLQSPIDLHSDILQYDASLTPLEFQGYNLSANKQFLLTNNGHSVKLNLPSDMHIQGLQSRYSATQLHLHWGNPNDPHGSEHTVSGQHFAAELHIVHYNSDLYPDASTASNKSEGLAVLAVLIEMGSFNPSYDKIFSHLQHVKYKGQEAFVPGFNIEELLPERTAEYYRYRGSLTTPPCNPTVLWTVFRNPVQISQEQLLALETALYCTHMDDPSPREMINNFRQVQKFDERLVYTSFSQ
T1 sequence (P43166 whole entry): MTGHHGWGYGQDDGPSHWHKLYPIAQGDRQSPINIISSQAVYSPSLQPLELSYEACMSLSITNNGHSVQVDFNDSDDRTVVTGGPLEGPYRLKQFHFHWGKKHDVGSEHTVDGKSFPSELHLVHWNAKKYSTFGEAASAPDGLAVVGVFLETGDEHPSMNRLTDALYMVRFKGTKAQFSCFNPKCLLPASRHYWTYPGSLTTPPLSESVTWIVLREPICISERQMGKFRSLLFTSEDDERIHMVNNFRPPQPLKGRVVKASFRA
T3 sequence (P00915 whole entry): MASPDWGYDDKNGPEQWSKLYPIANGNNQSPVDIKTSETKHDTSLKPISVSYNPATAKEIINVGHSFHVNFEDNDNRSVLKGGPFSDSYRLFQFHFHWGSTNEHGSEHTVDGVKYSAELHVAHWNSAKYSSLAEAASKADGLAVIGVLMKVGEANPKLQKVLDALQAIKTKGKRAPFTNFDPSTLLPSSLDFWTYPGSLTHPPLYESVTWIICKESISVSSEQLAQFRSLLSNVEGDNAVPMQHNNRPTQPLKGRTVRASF
T4 sequence (Q8N1Q1 whole entry): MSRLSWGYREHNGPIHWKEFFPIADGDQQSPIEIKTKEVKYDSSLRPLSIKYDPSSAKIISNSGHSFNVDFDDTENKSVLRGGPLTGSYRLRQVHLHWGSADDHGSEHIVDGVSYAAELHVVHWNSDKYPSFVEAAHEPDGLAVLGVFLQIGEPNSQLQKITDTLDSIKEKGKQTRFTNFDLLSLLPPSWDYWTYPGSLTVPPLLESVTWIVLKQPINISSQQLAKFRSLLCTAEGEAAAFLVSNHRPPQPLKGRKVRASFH

| Compound | Kd (CA VII [1]) | Kd (CA II [2]) | Kd (CA I [3]) | Kd (CA XIII [4]) | Kd (CA XII [5]) | Kd (CA XII [6]) | Kd (CA XIII [7]) | Kd (CA II [8]) | Kd (CA VII [9]) | Kd (CA I [10]) | Ki (CA II [11]) |
| --- | --- | --- | --- | --- | --- | --- | --- | --- | --- | --- | --- |
| COc1cccc(OC)c1CNc1c(F)c(S(N)(=O)=O)c(F)c(F)c1S(=O)(=O)CCO [Compound 10d, 3-[(2,6-dimethoxybenzyl)amino]-2,5,6-trifluoro-4-[(2-hydroxyethyl)sulfonyl]benzenesulfonamide] | 40 nM | 16.7 nM | 200 nM | 25 nM | 66.7 nM | – | – | – | – | – | – |
| COc1ccc(CNc2c(F)c(S(N)(=O)=O)c(F)c(F)c2S(=O)(=O)CCc2ccccc2)cc1OC [Compound 9i, 3-[(3,4-dimethoxybenzyl)amino]-2,5,6-trifluoro-4-[(2-phenylethyl)sulfonyl]benzenesulfonamide] | 6.7 nM | 22.2 nM | 213 nM | 3.3 nM | 250 nM | – | – | – | – | – | – |
| NS(=O)(=O)c1c(F)c(F)c(S(=O)(=O)CCO)c(NCc2ccccc2)c1F [Compound 10a, 3-(benzylamino)-2,5,6-trifluoro-4-[(2-hydroxyethyl)sulfonyl]benzenesulfonamide] | 130 nM | – | 200 nM | 14 nM | – | 12.2 nM | 45.2 nM | 139 nM | 405 nM | 130 nM | – |
| NS(=O)(=O)c1c(F)c(F)c(SCCO)c(F)c1N[C@H]1CCc2ccccc21 [Compound 4e, 2-[(1S)-2,3-dihydro-1H-inden-1-ylamino]-3,5,6-trifluoro-4-[(2-hydroxyethyl)thio]benzenesulfonamide] | 1100 nM | 2780 nM | 8300 nM | 33.3 nM | 1250 nM | – | – | – | – | – | 500 nM |
| CC(C)Nc1c(F)c(SCCc2ccccc2)c(F)c(F)c1S(N)(=O)=O [Compound 3a, 2-(isopropylamino)-3,5,6-trifluoro-4-[(2-phenylethyl)thio]benzenesulfonamide] | 130 nM | 500 nM | 3300 nM | 67 nM | 2900 nM | – | – | – | – | – | – |
| CC(Nc1c(F)c(SCCc2ccccc2)c(F)c(F)c1S(N)(=O)=O)c1ccccc1 (stereo not shown) [Compound 3d, 2-[(1-phenylethyl)amino]-3,5,6-trifluoro-4-[(2-phenylethyl)thio]benzenesulfonamide] | 4000 nM | 3300 nM | 1700 nM | 40 nM | 5000 nM | – | – | – | – | – | – |
| COc1ccc(CNc2c(F)c(S(N)(=O)=O)c(F)c(F)c2S(=O)(=O)CCO)cc1OC [Compound 10e, 3-[(3,4-dimethoxybenzyl)amino]-2,5,6-trifluoro-4-[(2-hydroxyethyl)sulfonyl]benzenesulfonamide] | 14.3 nM | 25 nM | 83.3 nM | 4.3 nM | 66.7 nM | – | – | – | – | – | – |
| NS(=O)(=O)c1c(F)c(F)c(S(=O)(=O)CCc2ccccc2)c(N[C@@H](c2ccccc2)[C@H](O)c2ccccc2)c1F [Compound 9n, 3-{[(1S,2R)-2-hydroxy-1,2-diphenylethyl]amino}-2,5,6-trifluoro-4-[(2-phenylethyl)sulfonyl]benzenesulfonamide] | 10 nM | 33 nM | 1700 nM | 5.6 nM | 250 nM | – | – | – | – | – | – |
| NS(=O)(=O)c1c(F)c(F)cc(F)c1NC1CCCCCCC1 [Compound 8a, 2-(cyclooctylamino)-3,5,6-trifluorobenzenesulfonamide] | 167 nM | 200 nM | 167 nM | 100 nM | 833 nM | – | – | – | – | – | – |
| NS(=O)(=O)c1c(F)c(F)c(S(=O)(=O)CCc2ccccc2)c(N[C@H](c2ccccc2)[C@@H](O)c2ccccc2)c1F [Compound 9o, 3-{[(1R,2S)-2-hydroxy-1,2-diphenylethyl]amino}-2,5,6-trifluoro-4-[(2-phenylethyl)sulfonyl]benzenesulfonamide] | 40 nM | 91 nM | 770 nM | 6.7 nM | 400 nM | – | – | – | – | – | – |
| NS(=O)(=O)c1c(F)c(F)c(SCCc2ccccc2)c(F)c1NC1CCCCC1 [Compound 3f, 2-(cyclohexylamino)-3,5,6-trifluoro-4-[(2-phenylethyl)thio]benzenesulfonamide] | 170 nM | 250 nM | 25000 nM | 500 nM | 500 nM | – | – | – | – | – | – |
| 3-{[4-(aminosulfonyl)-2,3,5,6-tetrafluorophenyl]thio}-[1,2,3]thiadiazolo[3,4-a]benzimidazole [Compound 2w] | 13 nM | – | 0.4 nM | – | 110 nM | – | – | – | – | – | – |
| NS(=O)(=O)c1c(F)c(F)c(S(=O)(=O)CCc2ccccc2)c(NC23CC4CC(CC(C4)C2)C3)c1F [Compound 9j, 3-(1-adamantylamino)-2,5,6-trifluoro-4-[(2-phenylethyl)sulfonyl]benzenesulfonamide] | 5 nM | 50 nM | 500 nM | 5.6 nM | 17 nM | – | – | – | – | – | – |
| NS(=O)(=O)c1c(F)c(F)c(S(=O)(=O)CCc2ccccc2)c(NCCc2ccccc2)c1F [Compound 9d, 3-[(2-phenylethy)amino]-2,5,6-trifluoro-4-[(2-phenylethyl)sulfonyl]benzenesulfonamide] | 4 nM | 17 nM | 500 nM | 6.7 nM | 33 nM | – | – | – | – | – | – |
| NS(=O)(=O)c1c(F)c(F)c(SCCc2ccccc2)c(F)c1NC1Cc2ccccc2C1 [Compound 3l, 2-(2,3-dihydro-1H-inden-2-ylamino)-3,5,6-trifluoro-4-[(2-phenylethyl)thio]benzenesulfonamide] | 4000 nM | 3300 nM | 5000 nM | 100 nM | 1700 nM | – | – | – | – | – | – |
| CNc1c(F)c(S(N)(=O)=O)c(F)c(F)c1S(=O)(=O)CCc1ccccc1 [Compound 9a, 3-(methylamino)-2,5,6-trifluoro-4-[(2-phenylethyl)sulfonyl]benzenesulfonamide] | 8.3 nM | – | 67 nM | 1.3 nM | – | – | – | – | – | – | – |
| COc1cccc(OC)c1CNc1c(F)c(S(N)(=O)=O)c(F)c(F)c1S(=O)(=O)CCc1ccccc1 [Compound 9h, 3-[(2,6-dimethoxybenzyl)amino]-2,5,6-trifluoro-4-[(2-phenylethyl)sulfonyl]benzenesulfonamide] | 667 nM | 22.2 nM | 58.8 nM | 8.3 nM | 167 nM | – | – | – | – | – | – |
| NS(=O)(=O)c1c(F)c(F)c(S(=O)(=O)CCc2ccccc2)c(NCc2ccccc2)c1F [Compound 9c, 3-(benzylamino)-2,5,6-trifluoro-4-[(2-phenylethyl)sulfonyl]benzenesulfonamide] | 5 nM | – | 56 nM | 2.5 nM | – | – | – | – | – | – | – |
